Assay results taken from patent US10899699B2, “Vinylogous phenethylamines as neurotransmitter releasers” (RESEARCH TRIANGLE INSTITUTE, priority 2016, dated 2021).
Where a name gives a salt, the structure may show the parent alone. Read-outs that look alike come from different tables or passages of the source.

Tests used:
5-HT2C = target: T1, 5-HT2C (Homo sapiens, UniProt P28335); assay: 5-HT2C calcium mobilization assay in HEK293 cells (agonist activity); assay type: cell-based; conditions: HEK293; for EC50: read-out: 5-HT2C EC50, (nM ± SEM); for Emax at 10 µM: read-out: 5-HT2C activity relative to the control 5-HT EMAX
T1 construct: expressed in transfected cells
T1 sequence (P28335 33-458): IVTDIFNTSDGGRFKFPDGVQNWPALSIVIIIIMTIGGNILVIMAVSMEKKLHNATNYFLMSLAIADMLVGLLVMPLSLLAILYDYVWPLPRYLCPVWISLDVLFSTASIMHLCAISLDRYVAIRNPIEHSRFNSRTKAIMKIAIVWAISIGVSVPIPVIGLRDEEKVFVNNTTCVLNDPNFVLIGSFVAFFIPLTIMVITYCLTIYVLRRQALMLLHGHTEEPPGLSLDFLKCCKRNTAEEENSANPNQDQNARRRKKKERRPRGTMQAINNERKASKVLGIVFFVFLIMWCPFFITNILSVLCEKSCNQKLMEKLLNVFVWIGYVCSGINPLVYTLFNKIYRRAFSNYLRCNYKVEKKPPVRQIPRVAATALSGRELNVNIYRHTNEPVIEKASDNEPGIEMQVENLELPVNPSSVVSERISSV
Procedure: (§1) BAT activity was measured using synaptosomes prepared from rat brain homogenates according to the protocol developed by Rothman and co-workers (Rothman, et al., Eur. J. Pharmacol. 2002, 447(1), 51). Compounds were first screened in uptake inhibition and release assays to determine the exact mode of drug action. Compounds active in both assays are releasers while compounds active only in the uptake inhibition assay are uptake inhibitors. Active compounds were then fully characterized by running 8-point concentration response curves in the assay corresponding to their mechanism of action. Substrate reversal experiments were conducted to validate substrate activity. The analogs were also tested for agonist activity at the serotonin-2 receptor subtypes (5-HT2A, 5-HT2B, 5-HT2C) using in vitro calcium mobilization assays in transfected HEK293 cells as previously described. These receptors are associated with the pharmacology of abused drugs, as 5-HT2A agonists are thought to be hallucinogenic while […] are associated with valvular heart disease and pulmonary hypertension; activity at these receptors would be considered off-target liabilities. On the other hand, agonists at 5-HT2C may be beneficial as potential pharmacotherapies for drug abuse and appetite suppression.
(§2) HEK293 cells stably expressing the human 5-HT2A receptor were used. The day before the assay, cells were plated into 96-well black-walled assay plates at 40,000 cells/well in DMEM-HG supplemented with 10% fetal bovine serum, 100 units of penicillin and streptomycin, and 15 mM HEPES. The cells were incubated overnight at 37° C., 5% CO2. Prior to the assay, Calcium 5 dye (Molecular Devices) was reconstituted according to the manufacturer instructions. The reconstituted dye was diluted 1:40 in pre-warmed (37° C.) assay buffer (1×HBSS, 20 mM HEPES, 2.5 mM probenecid, pH 7.4 at 37° C.). Growth medium was removed and the cells were gently washed with 100 μL of pre-warmed (37° C.) assay buffer. The cells were incubated for 45 minutes at 37° C., 5% CO2 in 200 μL of the diluted Calcium 5 dye. Serial dilutions of the test compounds were prepared in 1% DMSO/assay buffer, aliquoted into 96-well polypropylene plates, and warmed to 37° C. After the dye-loading incubation period, the cells were pre-treated with 25 μL of 9% DMSO/assay buffer and incubated for 15 min at 37° C. After the pre-treatment incubation period, the plate was read with a FlexStation® II (Molecular Devices). Calcium-mediated changes in fluorescence were monitored every 1.52 seconds over a 60 second time period, with the FlexStation® II adding 25 μL of test compound dilutions at the 19 second time point (excitation at 485 nm, detection at 525 nm). Peak kinetic reduction (SoftMax, Molecular Devices) relative fluorescent units (RFU) were plotted against compound concentration. Data were fit to the appropriate three-parameter logistic curve to generate EC50 values (GraphPad Prism 6.0, GraphPad Software, Inc., San Diego, Calif.). 5-HT2B and 5-HT2C calcium mobilization assays were run in the same manner with stable 5-HT2B and 5-HT2C HEK293 cells except that 35,000 cells/well were used instead of 40,000 cells/well.

[1] = target: T2, Dopamine Transporter (DAT) (Rattus norvegicus, UniProt P23977); assay: DAT release assay, rat brain synaptosomes; assay type: biochemical; conditions: for EC50: release of [3H]MPP+ from rat striatum synaptosomes, mean±SD (n=3)
T2 construct: Synaptosomes were prepared from rat striatum for the DAT assays; from tissue; host or cells: rat striatum synaptosomes
T2 sequence (P23977 whole entry): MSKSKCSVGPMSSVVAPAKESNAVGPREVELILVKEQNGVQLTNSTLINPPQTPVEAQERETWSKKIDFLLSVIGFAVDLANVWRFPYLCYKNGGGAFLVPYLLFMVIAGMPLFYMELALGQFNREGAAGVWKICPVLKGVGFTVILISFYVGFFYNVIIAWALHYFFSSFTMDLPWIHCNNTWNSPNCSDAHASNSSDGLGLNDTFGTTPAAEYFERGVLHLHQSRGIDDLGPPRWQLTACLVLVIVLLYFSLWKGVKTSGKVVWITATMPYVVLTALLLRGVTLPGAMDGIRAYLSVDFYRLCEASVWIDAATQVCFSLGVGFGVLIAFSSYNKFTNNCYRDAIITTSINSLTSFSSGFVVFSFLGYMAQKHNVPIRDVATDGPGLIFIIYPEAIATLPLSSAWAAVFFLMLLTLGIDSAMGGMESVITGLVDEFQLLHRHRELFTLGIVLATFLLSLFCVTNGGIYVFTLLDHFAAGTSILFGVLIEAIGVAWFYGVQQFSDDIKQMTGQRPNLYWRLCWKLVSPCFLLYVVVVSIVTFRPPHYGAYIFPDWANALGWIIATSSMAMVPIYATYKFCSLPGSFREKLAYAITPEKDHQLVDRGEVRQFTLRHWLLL
Procedure: as §1, with “Compounds active in both assays are releasers while compounds active only in the uptake inhibition assay are uptake inhibitors. Active compounds were then fully characterized by running 8-point concentration response curves in the assay corresponding to their mechanism of action.” left out
(§3) All animal studies were conducted in facilities fully accredited by the Association for the Assessment and Accreditation of Laboratory Animal Care (AAALAC) and experiments were performed in accordance with the Institutional Care and Use Committee (IACUC) of the National Institute on Drug Abuse Intramural Research Program (NIDA IRP). Rats were euthanized by CO2 narcosis, and brains were processed to yield synaptosomes as previously described (Rothman, R B, et al., Eur. J. Pharmacol. 2002, 447(1), 51.). Synaptosomes were prepared from rat striatum for the DAT assays, whereas synaptosomes were prepared from whole brain minus striatum and cerebellum for the NET and SERT assays.
(§4) For release assays, 9 nM [^3H]1-methyl-4-phenylpyridinium ([^3H]MPP+) was used as the radiolabeled substrate for DAT and NET, while 5 nM [^3H]5-HT was used as a substrate for SERT. All buffers used in the release assay methods contained 1 μM reserpine to block vesicular uptake of substrates. The selectivity of release assays was optimized for a single transporter by including unlabeled blockers to prevent the uptake of [^3H]MPP+ or [^3H]5-HT by competing transporters. Synaptosomes were preloaded with radiolabeled substrate in Krebs-phosphate buffer for 1 h (steady state). Release assays were initiated by adding 850 μL of preloaded synaptosomes to 150 μL of test drug. Release was terminated by vacuum filtration and retained radioactivity was quantified as described for uptake inhibition. Concentration-response curves were generated to yield EC50 values.
(§5) Substrate reversal experiments were conducted to validate substrate activity. The releasing ability of test compounds was tested at an EC80 concentration in the absence and presence of an uptake inhibitor (250 nM […] for DAT, 166 nM desipramine for NET, 100 nM fluoxetine for SERT).

[2] = target: Norepinephrine Transporter (NET) (Rattus norvegicus, UniProt Q9WTR4); assay type: biochemical; conditions: read-out: EC50, (nM ± SD) NET; release of [3H]MPP+ from rat brain synaptosomes; mean±SD (n=3)
[3] = target: T3, Serotonin Transporter (SERT) (Rattus norvegicus, UniProt P31652); assay: SERT release assay, rat brain synaptosomes; assay type: biochemical; conditions: for EC50: release of [3H]5-HT from rat brain synaptosomes, mean±SD (n=3)
T3 construct: synaptosomes were prepared from whole brain minus striatum and cerebellum for the NET and SERT assays; from tissue; host or cells: rat whole brain minus striatum and cerebellum, synaptosomes
T3 sequence (P31652 whole entry): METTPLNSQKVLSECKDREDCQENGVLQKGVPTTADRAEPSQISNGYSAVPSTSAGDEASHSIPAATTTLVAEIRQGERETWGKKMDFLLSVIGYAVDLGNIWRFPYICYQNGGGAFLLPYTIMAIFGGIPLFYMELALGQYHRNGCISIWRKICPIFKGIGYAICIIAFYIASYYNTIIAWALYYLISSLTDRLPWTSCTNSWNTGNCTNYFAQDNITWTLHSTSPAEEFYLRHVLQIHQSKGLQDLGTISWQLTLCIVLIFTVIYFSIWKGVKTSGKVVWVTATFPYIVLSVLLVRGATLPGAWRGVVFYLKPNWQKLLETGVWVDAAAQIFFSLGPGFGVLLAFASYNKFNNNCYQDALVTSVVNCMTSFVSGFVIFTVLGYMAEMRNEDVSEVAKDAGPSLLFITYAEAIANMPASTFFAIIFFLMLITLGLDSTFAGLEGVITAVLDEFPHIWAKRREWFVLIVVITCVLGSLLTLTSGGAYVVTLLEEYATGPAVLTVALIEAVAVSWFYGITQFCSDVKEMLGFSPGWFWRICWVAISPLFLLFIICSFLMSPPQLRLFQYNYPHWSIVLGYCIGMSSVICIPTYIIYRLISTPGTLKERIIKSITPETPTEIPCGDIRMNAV
Procedure: as §1, with “Compounds active in both assays are releasers while compounds active only in the uptake inhibition assay are uptake inhibitors. Active compounds were then fully characterized by running 8-point concentration response curves in the assay corresponding to their mechanism of action.” left out
as §3, §4, §5

5-HT2B = target: T4, 5-HT2B (Homo sapiens, UniProt P41595); assay: 5-HT2B calcium mobilization assay in HEK293 cells (agonist activity); assay type: cell-based; conditions: calcium mobilization, agonist, HEK293; for EC50: read-out: 5-HT2B EC50, (nM ± SEM)
T4 construct: expressed in transfected cells
T4 sequence (P41595 whole entry): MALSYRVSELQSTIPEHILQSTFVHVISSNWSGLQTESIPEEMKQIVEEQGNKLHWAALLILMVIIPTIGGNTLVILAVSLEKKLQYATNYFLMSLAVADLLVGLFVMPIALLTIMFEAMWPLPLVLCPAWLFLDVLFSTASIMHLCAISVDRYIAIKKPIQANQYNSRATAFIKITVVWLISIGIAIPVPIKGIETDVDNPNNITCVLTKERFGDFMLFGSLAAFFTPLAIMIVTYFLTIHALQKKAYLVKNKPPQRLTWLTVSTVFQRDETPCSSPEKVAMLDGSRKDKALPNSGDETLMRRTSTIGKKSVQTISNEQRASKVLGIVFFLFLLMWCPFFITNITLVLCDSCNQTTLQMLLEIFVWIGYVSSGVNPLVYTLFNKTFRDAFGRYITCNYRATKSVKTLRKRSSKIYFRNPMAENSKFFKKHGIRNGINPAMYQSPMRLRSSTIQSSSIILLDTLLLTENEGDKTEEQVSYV
Procedure: as §1, §2

human 5-HT2A receptor = target: T5, human 5-HT2A receptor (Homo sapiens, UniProt P28223); assay: 5-HT2A calcium mobilization assay in HEK293 cells (agonist activity); assay type: cell-based; conditions: for Emax: efficacy
T5 construct: expressed in transfected cells
T5 sequence (P28223 whole entry): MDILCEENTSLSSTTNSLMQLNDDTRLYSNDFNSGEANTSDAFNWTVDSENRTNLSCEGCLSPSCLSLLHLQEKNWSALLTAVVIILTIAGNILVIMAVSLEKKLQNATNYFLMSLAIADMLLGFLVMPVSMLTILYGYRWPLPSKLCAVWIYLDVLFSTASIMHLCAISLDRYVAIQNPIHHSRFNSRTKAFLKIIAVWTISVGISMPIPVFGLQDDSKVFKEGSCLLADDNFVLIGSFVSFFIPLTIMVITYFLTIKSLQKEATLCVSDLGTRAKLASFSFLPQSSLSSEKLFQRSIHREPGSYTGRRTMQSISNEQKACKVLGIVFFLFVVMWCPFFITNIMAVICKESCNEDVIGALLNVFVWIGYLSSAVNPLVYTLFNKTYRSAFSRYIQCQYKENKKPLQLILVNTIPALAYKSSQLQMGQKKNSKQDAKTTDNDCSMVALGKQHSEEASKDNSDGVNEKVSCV
Procedure: as §1, §2

[4] = calcium mobilization, agonist, HEK293, read-out: 5-HT2A EC50, (nM ± SEM)

| Compound | EC50 (5-HT2C; calcium mobilization, agonist) [nM] | EC50 [1] [nM] | EC50 [2] [nM] | EC50 [3] [nM] | EC50 (5-HT2B) [nM] | melting point [°C] | other results |
| --- | --- | --- | --- | --- | --- | --- | --- |
| C[C@@H](N)CC#Cc1ccccc1 [R-4, (1R)-1-Methyl-4-phenyl-but-3-ynylamine] | > 10000 | 660 ± 190 | 496 | 288 | > 10000 |  | selectivity for releasing 5-HT compared to DA, given as fold more potent at the DAT [1]: 2.3 fold |
| CC(N)/C=C\c1ccccc1 (centres unmarked) (as salt: hydrochloride) [compound 11, (2Z)-1-Methyl-3-phenyl-prop-2-enylamine] |  |  |  |  |  | 149 to 151 |  |
| C[C@H](N)C/C=C\c1ccccc1 [S-8, (1S,3Z)-1-Methyl-4-phenyl-but-3-enylamine] |  | 304 | 170 | 863 ± 86 | > 10000 |  | Emax at 10 µM (5-HT2C): < 50%; potency for releasing DA relative to 5-HT [1]: 2.2 fold; Emax (human 5-HT2A receptor; HEK293, calcium mobilization): 102%; EC50 (human 5-HT2A receptor; [4]): 1600 nM |
| CC(N)CC#Cc1ccccc1 (racemic) (as salt: hydrochloride) [compound 4, 1-Methyl-4-phenyl-but-3-ynylamine] |  |  |  |  |  | 131 to 132 |  |
| C[C@@H](N)C/C=C/c1ccccc1 (as salt: hydrochloride) [R-6, (1R,3E)-1-Methyl-4-phenyl-but-3-enylamine] |  |  |  |  |  | 172 to 174 |  |
| CC(N)/C=C/c1ccccc1 (centres unmarked) (as salt: hydrochloride) [compound 10, (2E)-1-Methyl-3-phenyl-prop-2-enylamine] |  |  |  |  |  | 151 to 152 |  |
| CC(N)C/C=C/c1ccccc1 (racemic) [compound 6, (3E)-1-Methyl-4-phenyl-but-3-enylamine] | > 10000 | 272 ± 44 | 239 ± 59 | 54 ± 8 | > 10000 |  | fold reduction in potency at 5-HT2A compared to 8 (human 5-HT2A receptor): 3 fold; Emax (human 5-HT2A receptor; HEK293, calcium mobilization): ~80%; EC50 (human 5-HT2A receptor; [4]): 5620 ± 1700 nM |
| C[C@H](N)C/C=C/c1ccccc1 (as salt: hydrochloride) [S-6, (1S,3E)-1-Methyl-4-phenyl-but-3-enylamine] |  |  |  |  |  | 172 to 173 |  |
| CC(N)CC#Cc1ccccc1 (racemic) [compound 4, 1-Methyl-4-phenyl-but-3-ynylamine] | > 10000 | 997 | 2980 | 384 ± 110 | > 10000 |  | potency at releasing DA compared to NE [1]: 3 fold; selectivity for releasing 5-HT compared to DA, given as fold more potent at the DAT [1]: 2.6 fold; EC50 (human 5-HT2A receptor; [4]): > 10000 nM; EC50 (human 5-HT2A receptor; calcium mobilization, read-out: 5-HT2A EC50): > 10000 nM |
| CC(N)C/C=C\c1ccccc1 (racemic) [compound 8, (3Z)-1-Methyl-4-phenyl-but-3-enylamine] | > 10000 | 900 ± 100 | 621 ± 190 | 646 | > 10000 |  | Emax at 10 µM (5-HT2C): < 50%; potency for releasing 5-HT relative to DA (SERT/DAT selectivity) [3]: 1.4 fold; Emax (human 5-HT2A receptor; HEK293, calcium mobilization): 90%; EC50 (human 5-HT2A receptor; [4]): 1860 nM |
| C[C@H](N)CC#Cc1ccccc1 (as salt: hydrochloride) [S-4, (1S)-1-Methyl-4-phenyl-but-3-ynylamine] |  |  |  |  |  | 141 to 142 |  |
| C[C@H](N)C/C=C\c1ccccc1 (as salt: hydrochloride) [S-8, (1S,3Z)-1-Methyl-4-phenyl-but-3-enylamine] |  |  |  |  |  | 83 to 84 |  |
| CC(N)C/C=C\c1ccccc1 (racemic) (as salt: hydrochloride) [compound 8, (3Z)-1-Methyl-4-phenyl-but-3-enylamine] |  |  |  |  |  | 115 to 117 |  |
| C[C@@H](N)CC#Cc1ccccc1 (as salt: hydrochloride) [R-4, (1R)-1-Methyl-4-phenyl-but-3-ynylamine] |  |  |  |  |  | 143 to 144 |  |
| CC(N)C/C=C/c1ccccc1 (racemic) (as salt: hydrochloride) [compound 6, (3E)-1-Methyl-4-phenyl-but-3-enylamine] |  |  |  |  |  | 147 to 148 |  |
| C[C@H](N)C/C=C/c1ccccc1 [S-6, (1S,3E)-1-Methyl-4-phenyl-but-3-enylamine] | > 10000 | 206 | 138 | 40 | > 10000 |  | 5-HT2C EC50, (nM ± SEM) (5-HT2C; calcium mobilization, agonist): inactive; potency at releasing DA compared to NE [1]: almost equal; potency for 5-HT release compared to NE release [3]: 3.5 fold; potency for releasing 5-HT relative to DA (SERT/DAT selectivity) [3]: 5 fold; 5-HT2B EC50, (nM ± SEM) (5-HT2B): inactive; 5-HT2A EC50, (nM ± SEM) (human 5-HT2A receptor; calcium mobilization, agonist, HEK293): inactive; EC50 (human 5-HT2A receptor; [4]): > 10000 nM |
| C[C@@H](N)C/C=C\c1ccccc1 (as salt: hydrochloride) [R-8, (1R,3Z)-1-Methyl-4-phenyl-but-3-enylamine] |  |  |  |  |  | 83 to 84 |  |
| C[C@@H](N)C/C=C/c1ccccc1 [R-6, (1R,3E)-1-Methyl-4-phenyl-but-3-enylamine] | > 10000 | 540 | 279 ± 24 | 109 ± 29 | > 10000 |  |  |
